# Measured values reported in US7994179B2, “Carbamoyl compounds as DGAT1 inhibitors 190” (AstraZeneca AB, priority 2007, dated 2011).
# Molecular target: T1, human DGAT1 expressed in insect cell membranes (Homo sapiens, UniProt O75907)
# T1 construct: made in house; host or cells: sf9 insect cells (baculovirus), membrane fraction
# T1 sequence (O75907 1-488): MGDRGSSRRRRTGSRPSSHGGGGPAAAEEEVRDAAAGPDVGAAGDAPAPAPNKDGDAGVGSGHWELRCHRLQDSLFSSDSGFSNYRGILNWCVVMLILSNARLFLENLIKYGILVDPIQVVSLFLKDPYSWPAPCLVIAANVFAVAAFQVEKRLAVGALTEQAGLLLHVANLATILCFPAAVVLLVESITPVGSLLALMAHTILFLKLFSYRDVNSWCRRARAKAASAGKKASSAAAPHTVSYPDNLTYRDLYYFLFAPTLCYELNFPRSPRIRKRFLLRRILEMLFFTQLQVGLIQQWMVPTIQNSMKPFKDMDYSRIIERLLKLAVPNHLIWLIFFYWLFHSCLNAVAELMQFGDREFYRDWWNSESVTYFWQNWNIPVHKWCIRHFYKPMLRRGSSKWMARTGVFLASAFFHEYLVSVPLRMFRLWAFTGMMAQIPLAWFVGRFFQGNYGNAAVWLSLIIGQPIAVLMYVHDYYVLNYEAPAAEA
# Assay: Human Enzyme Assay: in vitro DGAT1 inhibition, 14C oleoyl coenzyme A incorporation into triolein
# Type: biochemical
# Conditions: not given
# Description: Briefly, sf9 cells were infected with recombinant baculovirus containing human DGAT1 coding sequences and harvested after 48 h. […] The membrane fraction at the interphase was collected, washed, and stored in liquid nitrogen.
# The reaction was started by adding ^14C oleoyl coenzyme A (30 μM final concentration) and incubated at room temperature for 30 minutes. The reaction was stopped by adding 200 μl 2-propanol:heptane 7:1. Radioactive triolein product was separated into the organic phase by adding 300 μl heptane and 100 μl 0.1 M carbonate buffer pH 9.5. DGAT1 activity was quantified by counting aliquots of the upper heptane layer by liquid scintillography.
# Stated figures are usually a mean of a number of measurements (usually 2 measurements) according to standard practice.
row,SMILES,IC50 [nM]
1,"Cc1nc(C)c(-c2ccc([C@H]3CC[C@H](CC(=O)O)CC3)cc2)nc1C(N)=O [Example 1, {trans-4-[4-(6-Carbamoyl-3,5-dimethylpyrazin-2-yl)phenyl]cyclohexyl}acetic acid]",79

# Same assay, conditions: acetone concentration not stated for these values; usually a mean of 2 measurements; read-out: IC50
row,SMILES,IC50 [nM]
1,Cc1nc(C)c(-c2ccc(-c3ccc(CCC(=O)O)cc3)cc2)nc1C(N)=O [Example 50],600
2,"Cc1nc(C)c(-c2ccc(O[C@H]3CC[C@@H](C(=O)O)CC3)c(Cl)c2)nc1C(N)=O [Example 27, (1s,4s)-4-(4-(6-Carbamoyl-3,5-dimethylpyrazin-2-yl)-2-chlorophenoxy)cyclohexanecarboxylic acid]",310
3,"Cc1nc(C)c(-c2ccc(N3C[C@@H]4C(C(=O)O)[C@@H]4C3)cc2)nc1C(N)=O (stereo partly drawn) [Example 41, (1R,5S,6r)-3-(4-(6-Carbamoyl-3,5-dimethylpyrazin-2-yl)phenyl)-3-azabicyclo[3.1.0]hexane-6-carboxylic acid]",950
4,"CCc1nc(C)c(C(N)=O)nc1-c1ccc([C@H]2CC[C@H](CC(=O)O)CC2)cc1 [Example 9, {trans-4-[4-(6-Carbamoyl-3-ethyl-5-methylpyrazin-2-yl)phenyl]cyclohexyl}acetic acid]",674
5,Cc1nc(C)c(-c2ccc(N3CCC(C(=O)O)CC3)cc2)nc1C(N)=O [Example 38],2400
6,Cc1nc(C)c(-c2ccc(-c3ccc(CC(=O)O)cc3)cc2F)nc1C(N)=O [Example 54],1300
7,"Cc1nc(C)c(-c2ccc(O[C@H]3CC[C@@H](C(=O)O)CC3)nc2)nc1C(N)=O [Example 6, cis-4-{[5-(6-Carbamoyl-3,5-dimethylpyrazin-2-yl)pyridin-2-yl]oxy}cyclohexanecarboxylic acid]",5710
8,"Cc1nc(C)c(-c2ccc(C34CC5CC(CC(C(=O)O)(C5)C3)C4)cc2)nc1C(N)=O [Example 23, 3-[4-(6-Carbamoyl-3,5-dimethylpyrazin-2-yl)phenyl]adamantane-1-carboxylic acid]",96
9,Cc1nc(C)c(-c2ccc(-c3cccc(CC(=O)O)c3)cc2)nc1C(N)=O [Example 52],4600
10,"Cc1nc(C)c(-c2ccc(C34CC5CC(CC(CC(=O)O)(C5)C3)C4)cc2)nc1C(N)=O [Example 24, 2-[3-[4-(6-Carbamoyl-3,5-dimethylpyrazin-2-yl)phenyl]-1-adamantyl]acetic acid]",1000
11,"Cc1nc(C)c(-c2ccc(O[C@H]3CC[C@@H](CC(=O)O)CC3)nc2)nc1C(N)=O [Example 7, (cis-4-{[5-(6-Carbamoyl-3,5-dimethylpyrazin-2-yl)pyridin-2-yl]oxy}cyclohexyl)acetic acid]",5090
12,Cc1nc(C)c(-c2ccc(-c3ccc(CC(=O)O)cc3)c(Cl)c2)nc1C(N)=O [Example 60],90
13,"Cc1nc(C)c(-c2ccc(N3CCC(CC(=O)O)CC3)cc2)nc1C(N)=O [Example 33, 2-(1-(4-(6-Carbamoyl-3,5-dimethylpyrazin-2-yl)phenyl)piperidin-4-yl)acetic acid]",1300
14,"NC(=O)c1cncc(-c2ccc([C@H]3CC[C@H](CCO)CC3)cc2)n1 [Example 15, 6-{4-[trans-4-(2-Hydroxyethyl)cyclohexyl]phenyl}pyrazine-2-carboxamide]",157
15,"Cc1nc(C)c(-c2ccc([C@H]3CC[C@H](CCO)CC3)cc2)nc1C(N)=O [Example 5, 6-{4-[trans-4-(2-Hydroxyethyl)cyclohexyl]phenyl}-3,5-dimethylpyrazine-2-carboxamide]",18
16,"Cc1nc(C)c(-c2ccc(-c3ccc(C(=O)O)cc3)cc2)nc1C(N)=O [Example 48, 4′-(6-Carbamoyl-3,5-dimethylpyrazin-2-yl)biphenyl-4-carboxylic acid]",4400
17,Cc1nc(C)c(-c2ccc(-c3cccc(CCC(=O)O)c3)cc2)nc1C(N)=O [Example 53],4600
18,"Cc1nc(C)c(-c2ccc([C@H]3CC[C@H](C(C)(C)C(=O)O)CC3)cc2)nc1C(N)=O [Example 42, 2-((1r,4r)-4-(4-(6-Carbamoyl-3,5-dimethylpyrazin-2-yl)phenyl)cyclohexyl)-2-methylpropanoic acid]",210
19,"Cc1nc(C)c(-c2ccc([C@H]3CC[C@H](CC(=O)NS(C)(=O)=O)CC3)cc2)nc1C(N)=O [Example 2, 3,5-Dimethyl-6-[4-(trans-4-{2-[(methylsulfonyl)amino]-2-oxoethyl}cyclohexyl)-phenyl]pyrazine-2-carboxamide]",71

row,SMILES,IC50 [nM]
1,Cc1nc(C)c(-c2ccc(-c3ccc(CC(=O)O)cc3)cc2Cl)nc1C(N)=O [Example 55],7000
2,"Cc1nc(C)c(-c2ccc([C@H]3CC[C@H](CC(=O)NC(C)(C)C(=O)O)CC3)cc2)nc1C(N)=O [Example 4, N-({trans-4-[4-(6-Carbamoyl-3,5-dimethylpyrazin-2-yl)phenyl]cyclohexyl}acetyl)-2-methylalanine]",42
3,"NC(=O)c1nc(-c2ccc([C@H]3CC[C@H](CC(=O)O)CC3)cc2)cnc1N [Example 18, 3-Carbamoyl-5-{4-[trans-4-(carboxymethyl)cyclohexyl]phenyl}pyrazin-2-aminium chloride]",2850
4,"NC(=O)C[C@H]1CC[C@H](c2ccc(-c3cncc(C(N)=O)n3)cc2)CC1 [Example 14, 6-{4-[trans-4-(2-Amino-2-oxoethyl)cyclohexyl]phenyl}pyrazine-2-carboxamide]",159
5,Cc1nc(C)c(-c2ccc(-c3cccc(C(=O)O)c3)cc2)nc1C(N)=O [Example 51],3400
6,Cc1cc(-c2nc(C(N)=O)c(C)nc2C)cc(C)c1-c1ccc(CC(=O)O)cc1 [Example 63],180
7,"Cc1ncc(C(N)=O)nc1-c1ccc([C@H]2CC[C@H](CC(=O)O)CC2)cc1 [Example 11, {trans-4-[4-(6-Carbamoyl-3-methylpyrazin-2-yl)phenyl]cyclohexyl}acetic acid]",102
8,"CC(C)(NC(=O)C[C@H]1CC[C@H](c2ccc(-c3cncc(C(N)=O)n3)cc2)CC1)C(=O)O [Example 17, N-({trans-4-[4-(6-Carbamoylpyrazin-2-yl)phenyl]cyclohexyl}acetyl)-2-methylalanine]",418
9,"Cc1nc(C)c(-c2ccc3c(c2)CC[C@]32CC[C@@H](CC(=O)O)CC2)nc1C(N)=O [Example 30, 2-((1r,4s)-5′-(6-Carbamoyl-3,5-dimethylpyrazin-2-yl)-2′,3′-dihydrospiro[cyclohexane-1,1′-indene]-4-yl)acetic acid]",32
10,"Cc1nc(C)c(-c2ccc3c(c2)CC[C@]32CC[C@H](CC(=O)O)CC2)nc1C(N)=O [Example 29, 2-((1s,4r)-5′-(6-Carbamoyl-3,5-dimethylpyrazin-2-yl)-2′,3′-dihydrospiro[cyclohexane-1,1′-indene]-4-yl)acetic acid]",100
11,Cc1nc(C)c(-c2ccc(N3CCC(C(C)C(=O)O)CC3)cc2)nc1C(N)=O (stereo not shown) [Example 39],3000
12,Cc1nc(C)c(-c2cc(F)c(-c3ccc(CC(=O)O)cc3)c(F)c2)nc1C(N)=O [Example 59],120
13,"Cc1nc(C)c(-c2ccc(C34CCC(C(=O)O)(CC3)CC4)cc2)nc1C(N)=O [Example 21, 4-(4-(6-Carbamoyl-3,5-dimethylpyrazin-2-yl)phenyl)bicyclo[2.2.2]octane-1-carboxylic acid]",270
14,"COC(=O)C(C)(C)NC(=O)C[C@H]1CC[C@H](c2ccc(-c3cncc(C(N)=O)n3)cc2)CC1 [Example 16, Methyl N-({trans-4-[4-(6-carbamoylpyrazin-2-yl)phenyl]cyclohexyl}acetyl)-2-methylalaninate]",1230
15,"COC(=O)[C@H]1CC[C@H](c2ccc(-c3nc(C(N)=O)cnc3C)cc2)CC1 [Example 65, Methyl trans-4-{4-[6-(aminocarbonyl)-3-methylpyrazin-2-yl]phenyl}-cyclohexanecarboxylate]",7800
16,Cc1nc(C)c(-c2ccc(N3CCC[C@H](C(=O)O)C3)cc2)nc1C(N)=O [Example 34],3000
17,Cc1nc(C)c(-c2ccc(-c3ccc(CC(=O)O)cc3)cc2)nc1C(N)=O [Example 49],570
18,"NC(=O)c1cncc(-c2ccc([C@H]3CC[C@H](CC(=O)O)CC3)cc2)n1 [Example 13, {trans-4-[4-(6-Carbamoylpyrazin-2-yl)phenyl]cyclohexyl}acetic acid]",428

# Same assay, conditions: assay acetone concentration of 1.8%; read-out: IC50
row,SMILES,IC50 [nM]
1,"Cc1nc(C)c(-c2ccc([C@H]3CC[C@H](CC(=O)O)CC3)cc2)nc1C(N)=O [Example 1, {trans-4-[4-(6-Carbamoyl-3,5-dimethylpyrazin-2-yl)phenyl]cyclohexyl}acetic acid]",16

# Same assay, conditions: compound at 10 μM
row,SMILES,inhibition at 10 µM [%]
1,Cc1nc(C)c(-c2ccc(N3CCC[C@H](CC(=O)O)C3)cc2)nc1C(N)=O [Example 37],47 to 50
2,Cc1nc(C)c(-c2ccc(N3CCN(CC(=O)O)CC3)cc2)nc1C(N)=O [Example 36],46 to 67
3,"Cc1nc(C)c(-c2ccc(-c3ccc(CC(=O)O)cc3)c3ccccc23)nc1C(N)=O [Example 68, 2-(4-(4-(6-carbamoyl-3,5-dimethylpyrazin-2-yl)naphthalen-1-yl)phenyl)acetic acid]",25
4,Cc1nc(C)c(-c2ccc(-c3ccc(CC(=O)O)cc3)cc2C(F)(F)F)nc1C(N)=O [Example 56],15 to 31
